Values of other authors as cited in patent publication US20080063689A1, “Dietary supplements containing anthocyanins and methods for using same to enhance creatine absorption and vasodilation” (priority 2006, published 2008).

System: pancreatic beta cells
Conditions: glucose concentrations within physiological norms

| Substance | ability to stimulate insulin secretion |
| --- | --- |
| delphinium 3-glycoside | highest abilities to stimulate insulin secretion |
| cyanidin-3-glycoside | highest abilities to stimulate insulin secretion |
